Test results as given in patent US20250186408A1, “TREATMENT OF PHARMACORESISTANT EPILEPSY” (Katholieke Universiteit Leuven, priority 2021, published 2025).
Where two headings read alike, the source gives them in different places.

What was measured:
EDNRA = target: T1, EDNRA (Homo sapiens, UniProt P25101); experiment: Calcium Flux EDNRA Agonist; format: cell-based; settings: for Emax: read-out: Max response; for EC50: read-out: RC50, result type EC50
T1 sequence (P25101 21-427): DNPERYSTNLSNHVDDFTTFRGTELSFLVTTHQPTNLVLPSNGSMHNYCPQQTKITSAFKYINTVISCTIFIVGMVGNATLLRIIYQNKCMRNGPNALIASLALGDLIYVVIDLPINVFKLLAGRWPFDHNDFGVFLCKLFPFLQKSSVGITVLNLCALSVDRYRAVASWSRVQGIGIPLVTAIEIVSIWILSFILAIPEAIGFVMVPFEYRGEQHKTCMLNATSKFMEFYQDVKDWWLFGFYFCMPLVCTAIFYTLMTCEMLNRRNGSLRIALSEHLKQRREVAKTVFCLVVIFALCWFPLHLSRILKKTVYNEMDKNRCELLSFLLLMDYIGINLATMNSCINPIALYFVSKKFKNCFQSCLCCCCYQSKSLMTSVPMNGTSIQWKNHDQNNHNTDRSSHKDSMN
Method: (≤0.2% DMSO concentration). Assays were performed in 1× dye loading buffer consisting of 1× Dye (DiscoverX, Calcium No Wash^PLUS kit, Catalog No. 90-0091), 1× Additive A and 2.5 mM Probenecid in HBSS/20 mM HEPES. Probenecid was prepared fresh. Prior to testing, media was aspirated from cells and replaced with 25 μL dye loading buffer. Cells were incubated for 45 min at 37° C. and then 20 min at RT. For agonist determination, 25 μL of 2× compound in HBSS/20 mM HEPES was added using a FLIPR Tetra (MDS). […] 25 μL of 2× sample was added and cells were incubated for 30 min at RT in the dark to equilibrate plate temperature. After incubation, antagonist determination was initiated by addition of 25 μL of 1× compound with 3×EC80 agonist using FLIPR. For both agonist and antagonist formats, activity was measure on a FLIPR Tetra (MDS). Calcium mobilization was monitored for 2 min with a 5 sec baseline read.
FLIPR read—Area under the curve, was calculated for the entire 2 min read.

GABAA = GABAA (Homo sapiens, UniProt P14867+P18507+P47870); experiment: Ion Channel GABAA Blocker; format: cell-based; settings: read-out: Max response
HTR3A [1] = target: T2, HTR3A (Homo sapiens, UniProt P46098); experiment: Ion Channel HTR3A Blocker; format: cell-based; settings: for Emax: Ion Channel HTR3A Blocker, read-out: Max response
T2 sequence (P46098 24-478): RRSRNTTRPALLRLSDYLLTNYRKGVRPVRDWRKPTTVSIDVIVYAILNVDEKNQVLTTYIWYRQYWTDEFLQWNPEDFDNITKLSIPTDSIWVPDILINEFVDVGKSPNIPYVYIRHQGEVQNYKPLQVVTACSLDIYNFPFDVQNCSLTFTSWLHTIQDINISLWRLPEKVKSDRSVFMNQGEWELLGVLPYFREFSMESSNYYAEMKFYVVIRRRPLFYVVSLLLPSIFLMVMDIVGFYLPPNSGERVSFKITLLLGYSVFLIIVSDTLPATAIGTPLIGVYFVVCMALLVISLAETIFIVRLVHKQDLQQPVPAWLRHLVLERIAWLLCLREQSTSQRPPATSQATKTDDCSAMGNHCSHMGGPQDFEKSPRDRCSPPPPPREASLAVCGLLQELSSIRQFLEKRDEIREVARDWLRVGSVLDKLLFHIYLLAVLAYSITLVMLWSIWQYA

HTR3A [2] = target: T2, HTR3A; experiment: Ion Channel HTR3A Opener; format: cell-based; settings: for Emax: Ion Channel HTR3A Opener, read-out: Max response
MAOA = target: T3, MAOA (Homo sapiens, UniProt P21397); experiment: Enzymatic MAOA Inhibitor; format: biochemical; settings: for Emax: read-out: Max response
T3 construct: purchased Sigma
T3 sequence (P21397 1-527): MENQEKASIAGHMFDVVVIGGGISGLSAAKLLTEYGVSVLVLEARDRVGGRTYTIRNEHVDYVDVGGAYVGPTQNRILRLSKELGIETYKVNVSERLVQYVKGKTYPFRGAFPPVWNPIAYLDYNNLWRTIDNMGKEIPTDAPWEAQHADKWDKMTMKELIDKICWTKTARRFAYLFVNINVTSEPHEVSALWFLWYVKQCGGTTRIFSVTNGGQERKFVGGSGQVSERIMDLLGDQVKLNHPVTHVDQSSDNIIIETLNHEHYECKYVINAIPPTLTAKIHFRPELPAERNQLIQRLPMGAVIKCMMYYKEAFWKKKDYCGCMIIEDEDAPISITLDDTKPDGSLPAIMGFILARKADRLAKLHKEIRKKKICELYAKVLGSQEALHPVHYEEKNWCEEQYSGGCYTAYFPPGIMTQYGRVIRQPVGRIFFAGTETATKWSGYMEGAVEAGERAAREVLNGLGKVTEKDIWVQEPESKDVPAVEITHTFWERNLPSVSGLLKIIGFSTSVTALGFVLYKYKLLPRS
Method: Enzyme preparations were sourced from various vendors-AChE (R&D Systems), COX1 and COX2 (BPS Bioscience), MAOA (Sigma), PDE3A and PDE4D2 (Signal Chem). AChE: enzyme and test compound were pre-incubated for 15 min at RT before substrate addition. Acetylthiocholine and DTNB were added and incubated at RT for 30 min. Signal was detected by measuring absorbance at 405 nm. COX1 and COX2: enzyme stocks were diluted in assay buffer (40 mM Tris-HCl, 1×PBS, 0.5 mM Phenol, 0.01% Tween 20 and 10 nM Hematin) and allowed to equilibrate with compounds at RT for 30 min (binding incubation). Arachidonic acid (1.7 μM) and Ampliflu Red (2.5 μM) were prepared and dispended into a reaction plate. Plates were read immediately on a fluorimeter with the emission detection at 590 nm and excitation wavelength 544 nm. MAOA: enzyme and test compound were pre-incubated for 15 min at 37° C. before substrate addition. The reaction was initiated by addition of kynuramine and incubated at 37° C. for 30 min. The reaction was terminated by addition of NaOH. The amount of 4-hydroquinoline formed was determined through spectrofluorometric readout with the emission detection at 380 nm and excitation wavelength 310 nm. PDE3A and PDE4D2: enzyme and test compound were pre-incubated for 15 min at RT before substrate addition. cAMP substrate (at a concentration equal to EC80) was added and incubated at RT for 30 min. Enzyme reaction was terminated by addition of 9 mM IBMX. Signal was detected using the HitHunter® cAMP detection kit. Microplates were transferred to a PerkinElmer Envision™ instrument and read out as described for each assay. […] For enzyme activity assays, percentage inhibition was calculated using the following equation: […]

in vivo = settings: male, NMRI, mouse, ip, 300 mg/kg
Method: After the treatment period, blood samples were drawn from the tail veins, collected in Greiner MiniCollect K2EDTA tubes, and centrifuged twice for 5 min at 15,000 g to obtain plasma samples. Three volumes of acetonitrile were added to one volume of plasma to precipitate out the proteins. The samples were vortexed for 20 s and placed on ice. Immediately after, they were centrifuged at 5,000 g for 10 min and again at 10,000 g for 2 min. The resulting supernatants were transferred to Eppendorf tubes and centrifuged for 2 min at 10,000 g. Finally, the supernatants were collected for analysis by LC-MS/MS to determine the targeted compound concentration. Percentage recovery was determined as follows: known concentrations of the compound were spiked into the blank plasma and acetonitrile was added (3:1 ratio) to precipitate out the proteins. Samples were vortexed for 20 s and placed on ice. The resulting supernatants were isolated via centrifugation as described above. The targeted compounds were identified using LC-MS/MS to detect their characteristic ions. Plasma concentrations at each point were plotted as a function of time.
Brain samples were collected at the same time points as described for blood samples. Male NMRI mice were overdosed with dolethal via i.p. administration. Mice were perfused with 0.9% saline and brains were collected in Eppendorf tubes. Brains were weighed, whereafter 400 μL of acetonitrile was added to the samples. […] Homogenized samples were centrifuged at 5,000 g for 10 min and again at 10,000 g for 2 min. The resulting supernatants were transferred to Eppendorf tubes and centrifuged for 2 min at 10,000 g. Finally, the supernatants were collected for analysis by LC-MS/MS to determine the targeted compound concentration in the brain tissue.
The compound concentrations in mouse plasma and brain were determined by LC-MS/MS.

CNR2 = CNR2 (Homo sapiens, UniProt P34972); experiment: cAMP CNR2 Antagonist; settings: for Emax: read-out: Max response
Sequence of CNR2 (P34972 whole entry): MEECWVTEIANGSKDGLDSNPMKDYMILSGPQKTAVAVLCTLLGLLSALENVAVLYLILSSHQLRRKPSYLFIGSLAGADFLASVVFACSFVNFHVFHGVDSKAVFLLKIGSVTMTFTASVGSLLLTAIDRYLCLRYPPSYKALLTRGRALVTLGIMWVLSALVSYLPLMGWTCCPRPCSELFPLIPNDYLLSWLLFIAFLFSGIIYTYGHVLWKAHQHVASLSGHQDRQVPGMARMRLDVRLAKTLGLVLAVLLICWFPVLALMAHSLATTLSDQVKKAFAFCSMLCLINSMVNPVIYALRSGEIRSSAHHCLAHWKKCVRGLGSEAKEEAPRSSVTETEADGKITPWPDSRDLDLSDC
Method: In vitro pharmacological profiling of compounds was done against 78 functional assays for 47 common off-targets (30) by Eurofins DiscoverX Corporation (Fremont, CA, USA) using their SAFETYscan E/IC50 ELECT service (Cat Ref 87-1003DR, Safety47 Panel Dose Response). […] Compounds were tested in a range of 10 concentrations, following a 3-fold serial dilution, starting from 10 μM.
cAMP Hunter cell lines were expanded from freezer stocks. Prior to testing, cells were seeded in a total volume of 20 μL into white walled 384-well microplates and incubated at 37° C. cAMP modulation was determined using the DiscoverX HitHunter cAMP XS+ assay. For Gs agonist determination, cells were incubated with sample to induce response. For Gi agonist determination, cells were incubated with sample in the presence of EC80 forskolin to induce response. For both conditions, media was aspirated from cells and replaced with 15 μL 2:1 HBSS/10 mM HEPES:cAMP XS+ Ab reagent. Intermediate dilution of sample stocks was performed to generate 4× sample in assay buffer (containing 4×EC80 forskolin in the case of antagonist determination). 5 μL of 4× sample was added to cells and incubated at 37° C. or room temperature (RT) for 30 or 60 min. Final assay vehicle concentration was 1%. For antagonist determination, cells were pre-incubated with sample followed by agonist challenge at the EC80 concentration. Media was aspirated from cells and replaced with 10 μL 1:1 HBSS/HEPES:cAMP XS+ Ab reagent. 5 μL of 4× compound was added to the cells and incubated at 37° C. or RT for 30 min. 5 μL of 4×EC80 agonist was added to the cells and incubated at 37° C. or RT for 30 or 60 min. For Gi coupled GPCRs, EC80 forskolin was included. […] Microplates were read following signal generation with a PerkinElmer Envision™ instrument for chemiluminescent signal detection. Compound activity was analyzed using CBIS data analysis suite (ChemInnovation, CA). For Gs agonist mode assays, percentage activity was calculated using the following equation:

Sequence of GABAA (P14867 28-456): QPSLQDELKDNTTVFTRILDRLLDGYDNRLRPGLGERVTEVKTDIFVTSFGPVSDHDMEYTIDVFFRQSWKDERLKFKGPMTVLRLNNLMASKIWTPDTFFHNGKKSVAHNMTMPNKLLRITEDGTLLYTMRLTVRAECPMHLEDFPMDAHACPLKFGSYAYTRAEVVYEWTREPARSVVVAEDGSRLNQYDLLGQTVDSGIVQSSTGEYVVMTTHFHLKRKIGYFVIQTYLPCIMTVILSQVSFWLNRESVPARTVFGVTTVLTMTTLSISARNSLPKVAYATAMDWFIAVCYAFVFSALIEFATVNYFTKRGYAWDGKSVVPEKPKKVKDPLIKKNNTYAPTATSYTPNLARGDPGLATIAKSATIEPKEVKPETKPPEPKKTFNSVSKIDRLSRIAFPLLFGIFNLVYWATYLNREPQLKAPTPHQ
Sequence of GABAA (P47870 26-512): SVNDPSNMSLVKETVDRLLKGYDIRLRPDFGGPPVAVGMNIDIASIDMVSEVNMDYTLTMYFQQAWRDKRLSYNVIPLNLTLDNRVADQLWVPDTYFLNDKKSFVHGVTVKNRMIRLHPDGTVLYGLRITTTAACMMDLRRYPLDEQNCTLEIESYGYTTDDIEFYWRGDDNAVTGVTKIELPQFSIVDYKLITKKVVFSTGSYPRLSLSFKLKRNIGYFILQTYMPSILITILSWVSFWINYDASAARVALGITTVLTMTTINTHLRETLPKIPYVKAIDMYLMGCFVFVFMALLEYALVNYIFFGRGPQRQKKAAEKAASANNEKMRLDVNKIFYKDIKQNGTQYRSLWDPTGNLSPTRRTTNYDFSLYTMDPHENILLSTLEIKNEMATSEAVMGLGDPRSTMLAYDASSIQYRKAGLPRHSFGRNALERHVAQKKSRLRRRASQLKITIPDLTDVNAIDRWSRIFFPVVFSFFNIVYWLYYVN
Sequence of GABAA (P18507 40-475): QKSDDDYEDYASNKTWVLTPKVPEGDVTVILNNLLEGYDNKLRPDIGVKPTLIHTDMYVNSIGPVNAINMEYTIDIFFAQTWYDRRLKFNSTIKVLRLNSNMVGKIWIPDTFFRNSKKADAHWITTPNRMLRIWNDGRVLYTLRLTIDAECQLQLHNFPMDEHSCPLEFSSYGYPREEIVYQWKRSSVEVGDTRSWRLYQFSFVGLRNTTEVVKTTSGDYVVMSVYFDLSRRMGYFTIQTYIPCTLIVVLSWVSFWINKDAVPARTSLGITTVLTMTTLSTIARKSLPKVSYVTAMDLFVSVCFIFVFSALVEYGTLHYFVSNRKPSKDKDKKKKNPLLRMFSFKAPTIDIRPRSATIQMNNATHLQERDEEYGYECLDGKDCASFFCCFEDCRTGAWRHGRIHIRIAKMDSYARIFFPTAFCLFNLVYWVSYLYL

SMILES	Emax (EDNRA; Calcium Flux EDNRA Agonist) [%]	EC50 (EDNRA; Calcium Flux EDNRA Agonist) [µM]	Emax (GABAA) [%]	IC50 (HTR3A [1]) [µM]	Emax (HTR3A [1]) [%]	EC50 (HTR3A [2]) [µM]	Emax (HTR3A [2]) [%]	Emax (MAOA; Enzymatic MAOA Inhibitor) [%]	IC50 (MAOA; Enzymatic MAOA Inhibitor, read-out: RC50, result type IC50) [µM]	Cmax (in vivo; brain) [ng/g]	Cmax (in vivo; plasma) [µM]	IC50 (CNR2) [µM]	Emax (CNR2) [%]	Emax (EDNRA) [%]	IC50 (MAOA) [µM]	Emax (MAOA) [%]
Clc1cccc(C#Cc2n[nH]c3ncccc23)c1 [Compound 10.1, 3-((3-chlorophenyl)ethynyl)-1H-pyrazolo[3,4-b]pyridine]	1.8	> 10	5.2	> 10	19.7	> 10	3.4	12.4	> 10	31000	27	> 10	0			
CC(C)(C)c1ccc(C#CC(O)c2ccccc2)cc1 (racemic) [Compound 3.3, rac-3-(4-(tert-butyl)phenyl)-1-phenylprop-2-yn-1-ol]		> 10	8.7	> 10	50.1	> 10	0			96000	62	> 10	38.3	0	> 10	4.4
